Laboratory results taken from patent US20260248882A1, “USE OF ANNEXIN A5 IN HAIR GROWTH, HAIR NURTURING, HAIR CARE, HAIR LOSS PREVENTION, AND HAIR LOSS TREATMENT, AND RELATED PRODUCTS AND PHARMACEUTICAL COMPOSITIONS” (SHANGHAI CELLEAF BIOTECHNOLOGY CO., LTD, priority 2023, published 2026).

Columns and labels:
androgen receptor (AR) = experiment: Western Blot of androgen receptor expression in isolated dermal papillae; type: in vivo, mouse; settings: DHT model mice, A5-Low/A5 High groups, FIG. 4
Protocol: (§1) Experimental animals: C57BL/6 male mice, 5-7 weeks old, weighing around 20 g were housed in a 12 hour light/12 hour dark environment, with free access to food and water. The experiment set up control group (CTRL); model group (DHT); A5-Low group (treated with Annexin A5, injected once every three days); and A5-High group (treated with Annexin A5, injected once a day). Each group consists of 6 mice.
(§2) Modeling and administration: Dihydrotestosterone (DHT) was used to induce the formation of the mouse androgenetic hair loss model. In addition to the control group, the other three groups of mice received subcutaneous injection of DHT solution (5 mg/mL) at the neck, 0.01 mL for each, for a total of 2 weeks. The control group was injected with an equal volume of physiological saline. After 2 weeks, all mice were shaved and their back hair was removed using a shaving knife. […] The status of hair growth on the back of mice was observed every day and recorded by taking photos. […]
(§3) Sample Treatment: After euthanizing the mice, 1 cm^2 skin tissue was collected, and the hair on the skin surface was removed with a scissors as much as possible. […] The supernatant was collected by high-speed centrifugation, the protein concentration was determined using BCA method, and protein samples were prepared according to Western Blot requirements. […]

[1] = system: Ki67 (cell proliferation marker); experiment: Ki67 immunohistochemical staining of paraffin skin sections; type: in vivo, mouse; settings: DHT model mice after Annexin A5 treatment; FIG. 3
Protocol: as §1
as §2, with “knife. Then hair removal cream was used to further remove residual hair from the shaved area of the mice. After hair removal, both the control group and the model group were injected daily with […] of PBS in the hair removal area, divided into 10 injection points, with 20 μL per point. The A5-Low group received Annexin A5 treatment once every three days, while the A5-High group received Annexin A5 treatment once a day.” for “knife.”

[2] = system: CD31 (vascular angiogenesis marker); experiment: CD31 immunohistochemical staining of paraffin skin sections; type: in vivo, mouse; settings: DHT model mice after Annexin A5 treatment; FIG. 3
Protocol: as §1
as §2, with “knife. Then hair removal cream was used to further remove residual hair from the shaved area of the mice. After hair removal, both the control group and the model group were injected daily with […] of PBS in the hair removal area, divided into 10 injection points, with 20 μL per point. The A5-Low group received Annexin A5 treatment once every three days, while the A5-High group received Annexin A5 treatment once a day.” for “knife.”

[3] = system: mouse androgenetic hair loss model; experiment: Hair growth observation in mouse androgenetic hair loss model (DHT-induced); type: in vivo; settings: C57BL/6 male mice, depilated back, FIG. 1
Protocol: as §1
as §2, with “knife. Then hair removal cream was used to further remove residual hair from the shaved area of the mice. After hair removal, both the control group and the model group were injected daily with […] of PBS in the hair removal area, divided into 10 injection points, with 20 μL per point. The A5-Low group received Annexin A5 treatment once every three days, while the A5-High group received Annexin A5 treatment once a day.” for “knife.”

[4] = system: transforming growth factor β1 (TGF β-1); experiment: Western Blot of TGF-β1 expression in isolated dermal papillae; type: in vivo, mouse; settings: DHT model mice, A5-Low/A5 High groups, FIG. 4
Protocol: as §1, §2, §3

[5] = system: mouse androgenetic hair loss model; experiment: Histological HE staining analysis of skin sections; type: in vivo; settings: DHT model mice treated with Annexin A5 for 2 weeks, FIG. 2
Protocol: as §1
Modeling and administration: Dihydrotestosterone (DHT) was used to induce the formation of the mouse androgenetic hair loss model. In addition to the control group, the other three groups of mice received subcutaneous injection of DHT solution (5 mg/mL) at the neck, 0.01 mL for each, for a total of 2 weeks. The control group was injected with an equal volume of physiological saline. After 2 weeks, all mice were shaved and their back hair was removed using a shaving knife. Then hair removal cream was used to further remove residual hair from the shaved area of the mice. After hair removal, both the control group and the model group were injected daily with […] of PBS in the hair removal area, divided into 10 injection points, with 20 μL per point. The A5-Low group received Annexin A5 treatment once every three days, while the A5-High group received Annexin A5 treatment once a day. The injection method was subcutaneous injection at 10 points in the hair removal area, with 20 μL of Annexin A5 at a concentration of 50 μg/mL injected at each point. The status of hair growth on the back of mice was observed every day and recorded by taking photos. Samples were collected after 16 days.
Tissue sampling: After drug treatment, mice were euthanized by cervical dislocation. […]
Sections were taken for xylene dewaxing and gradient ethanol hydration, and then hematoxylin and eosin staining was performed. […] The next day, an optical microscope was used to observe and record, and the number of hair follicles was statistical analyzed.

## Annexin A5: calcium phospholipid binding protein composed of a single polypeptide chain of 319 amino acids
Androgen receptor (AR)
  AR expression in dermal papillae: significant inhibition
[1]
  proliferation and survival ability of cells in the hair follicles (Ki67): improved
[2]
  number of capillaries around the dermal papillae (CD31): increased
[3]; A5-Low and A5-High groups
  entry into anagen phase (skin turning black): entered the anagen phase earlier
[3]; subcutaneous Annexin A5 50 μg/mL, 10 points x 20 μL, once every three days or once a day, observed 16 days
  hair growth ability: significantly enhanced hair growth ability
[4]
  TGF-β1 expression in dermal papillae: significant inhibition
[5]
  dermal thickness: did not affect
  follicle size: did not affect
  number of hair follicle dermal papillae: did not affect
